In the experiment the target is T1, recombinant guanylate cyclase reporter cell line (Rattus norvegicus, UniProt P20595).
T1 construct: expressed in transfected cells
T1 sequence (P20595 1-619): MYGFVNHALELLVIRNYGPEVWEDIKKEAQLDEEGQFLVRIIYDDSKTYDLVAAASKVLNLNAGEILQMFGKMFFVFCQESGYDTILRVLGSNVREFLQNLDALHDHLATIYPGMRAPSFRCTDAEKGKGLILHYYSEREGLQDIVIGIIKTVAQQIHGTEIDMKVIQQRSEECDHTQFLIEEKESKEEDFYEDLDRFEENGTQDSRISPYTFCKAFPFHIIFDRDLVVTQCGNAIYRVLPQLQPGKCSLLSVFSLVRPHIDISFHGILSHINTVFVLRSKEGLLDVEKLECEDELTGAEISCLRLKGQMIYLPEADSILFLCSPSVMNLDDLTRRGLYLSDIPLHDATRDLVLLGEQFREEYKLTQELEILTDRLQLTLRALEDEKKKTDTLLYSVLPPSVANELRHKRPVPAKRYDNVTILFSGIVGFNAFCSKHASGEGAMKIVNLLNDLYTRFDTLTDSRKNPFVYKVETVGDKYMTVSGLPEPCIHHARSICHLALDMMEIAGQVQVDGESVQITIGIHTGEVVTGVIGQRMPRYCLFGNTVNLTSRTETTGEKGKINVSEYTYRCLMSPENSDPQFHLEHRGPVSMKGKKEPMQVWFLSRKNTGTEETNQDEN
T1 sequence (P19686 1-690 partner): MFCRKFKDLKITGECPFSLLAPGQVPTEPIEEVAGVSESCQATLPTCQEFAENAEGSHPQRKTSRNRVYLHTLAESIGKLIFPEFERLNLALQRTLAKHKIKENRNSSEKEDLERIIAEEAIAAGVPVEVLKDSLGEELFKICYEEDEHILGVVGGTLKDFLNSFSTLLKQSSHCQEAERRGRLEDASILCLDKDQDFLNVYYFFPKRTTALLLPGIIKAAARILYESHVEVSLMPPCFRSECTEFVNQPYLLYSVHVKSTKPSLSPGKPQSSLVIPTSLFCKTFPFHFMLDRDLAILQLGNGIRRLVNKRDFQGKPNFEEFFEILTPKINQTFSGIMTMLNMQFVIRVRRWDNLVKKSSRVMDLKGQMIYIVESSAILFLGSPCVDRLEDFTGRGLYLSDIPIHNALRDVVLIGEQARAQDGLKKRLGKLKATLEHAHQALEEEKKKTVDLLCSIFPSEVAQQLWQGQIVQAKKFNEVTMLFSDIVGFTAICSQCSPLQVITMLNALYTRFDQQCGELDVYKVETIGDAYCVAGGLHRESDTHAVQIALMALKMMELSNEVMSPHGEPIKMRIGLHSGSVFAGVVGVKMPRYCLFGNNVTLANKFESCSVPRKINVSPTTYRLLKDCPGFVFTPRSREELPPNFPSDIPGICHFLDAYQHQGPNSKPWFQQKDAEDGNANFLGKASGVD
The experiment is described as follows: Effect on a recombinant guanylate cyclase reporter cell line. The format is cell-based. The conditions noted are these: for EC50: half maximal effective concentration; for MEC: minimum effective concentration. The protocol: B-1. Effect on a Recombinant Guanylate Cyclase Reporter Cell Line
The cellular activity of the compounds according to the invention was determined using a recombinant guanylate cyclase reporter cell line, as described in F. Wunder et al., Anal. Biochem. 339, 104-112 (2005).

Data on 16 compounds can be found in patent US20240101528A1, “SUBSTITUTED PYRAZOLO PIPERIDINE CARBOXYLIC ACIDS” (BAYER AKTIENGESELLSCHAFT, priority 2020, published 2024).

By EC50 is commonly meant the midpoint of the concentration-response curve.

Where a name gives a salt, the structure may show the parent alone.

Regarding `CCN1CCN(c2ccc(-c3ccc(C(F)(F)F)cc3N3CCCC(n4ncc(C(=O)O)c4C(F)F)C3)cc2)CC1` (single isomer, unassigned; enantiomer 1) [Example 73, 5-(Difluoromethyl)-1-{1-[4′-(4-ethylpiperazin-1-yl)-4-(trifluoromethyl)[biphenyl]-2-yl]piperidin-3-yl}-1H-pyrazole-4-carboxylic acid hydrochloride (Enantiomer 1)], the EC50 turned out to be 66 nM and the MEC was found to be 10.0 nM.

Turning to `CC(=O)N1CCN(c2ccc(-c3ccc(Cl)cc3N3CCCC(n4ncc(C(=O)O)c4C(F)F)C3)cn2)CC1` (single isomer, unassigned; enantiomer 2) [Example 68, 1-(1-{2-[6-(4-Acetylpiperazin-1-yl)pyridin-3-yl]-5-chlorophenyl}piperidin-3-yl)-5-(difluoromethyl)-1H-pyrazole-4-carboxylic acid hydrochloride (Enantiomer 2)], the EC50 was 68 nM and the MEC was determined as 30.0 nM.

Regarding `O=C(O)c1cnn(C2CCCN(c3cc(Cl)ccc3-c3ccc(N4CCN(C[C@H]5C[C@H]5F)CC4)cc3)C2)c1C(F)F` (single isomer, unassigned; stereoisomer 2) [Example 37], the EC50 stood at 2.1 nM and the MEC worked out at 1.0 nM.

Turning to `Cc1cc(N2CCN(CC(F)(F)F)CC2)ncc1-c1ccc(Cl)cc1N1CCCC(n2ncc(C(=O)O)c2C(F)F)C1` (single isomer, unassigned; enantiomer 2) [Example 69, 1-[1-(5-Chloro-2-{4-methyl-6-[4-(2,2,2-trifluoroethyl)piperazin-1-yl]pyridin-3-yl}phenyl)piperidin-3-yl]-5-(difluoromethyl)-1H-pyrazole-4-carboxylic acid hydrochloride (Enantiomer 2)], the EC50 came out at 45.5 nM and the MEC is 30.0 nM.

Consider `CC(C)(C)CN1CCN(c2ccc(-c3ccc(Cl)cc3N3CCCC(n4ncc(C(=O)O)c4C(F)F)C3)cc2)CC1` (single isomer, unassigned; enantiomer 2) [Example 13, 1-[(1-{4-Chloro-4′-[4-(2,2-dimethylpropyl)piperazin-1-yl][biphenyl]-2-yl}piperidin-3-yl]-5-(difluoromethyl)-1H-pyrazole-4-carboxylic acid hydrochloride (Enantiomer 2)], for which the concentration giving a half-maximal response (EC50) turned out to be 89 nM and the MEC was 3.0 nM.

For `CCN1CCN(c2ccc(-c3ccc(Cl)cc3N3CCCC(n4ncc(C(=O)O)c4C(F)F)C3)cc2)CC1` (single isomer, unassigned; enantiomer 2) [Example 4, 1-{1-[4-Chloro-4′-(4-ethylpiperazin-1-yl)[biphenyl]-2-yl]piperidin-3-yl}-5-(difluoromethyl)-1H-pyrazole-4-carboxylic acid hydrochloride (Enantiomer 2)], the EC50 was 13 nM and the MEC is 1.3 nM.

On to `O=C(O)c1cnn(C2CCCN(c3cc(Cl)ccc3-c3ccc(N4CCN(CC5CC5(F)F)CC4)cc3)C2)c1C(F)F` (single isomer, unassigned; diastereomer 3) [Example 30, 1-{1-[4-Chloro-4′-(4-{[2,2-difluorocyclopropyl]methyl}piperazin-1-yl)[biphenyl]-2-yl]piperidin-3-yl}-5-(difluoromethyl)-1H-pyrazole-4-carboxylic acid hydrochloride (Diastereomer 3)], for which the EC50 worked out at 2 nM and the MEC is listed as 0.3 nM.

With `O=C(O)c1cnn(C2CCCN(c3cc(Cl)ccc3-c3ccc(N4CCN(C[C@@H]5C[C@@H]5F)CC4)cc3)C2)c1C(F)F` (single isomer, unassigned; stereoisomer 2) [Example 36], the EC50 came out at 4.2 nM and the MEC is on record as 1.0 nM.

Turning to `CCCN1CCN(c2ccc(-c3ccc(Cl)cc3N3CCCC(n4ncc(C(=O)O)c4C(F)F)C3)cn2)CC1` (single isomer, unassigned; enantiomer 2) [Example 61, 1-(1-{5-Chloro-2-[6-(4-propylpiperazin-1-yl)pyridin-3-yl]phenyl}piperidin-3-yl)-5-(difluoromethyl)-1H-pyrazole-4-carboxylic acid hydrochloride (Enantiomer 2)], the EC50 is 28.5 nM and the MEC was 10.0 nM.

Consider `O=C(O)c1cnn(C2CCCN(c3cc(Cl)ccc3-c3ccc(N4CCN(CCC(F)(F)F)CC4)nc3)C2)c1C(F)F` (single isomer, unassigned; enantiomer 1) [Example 66, 1-[1-(5-Chloro-2-{6-[4-(3,3,3-trifluoropropyl)piperazin-1-yl]pyridin-3-yl}phenyl)piperidin-3-yl]-5-(difluoromethyl)-1H-pyrazole-4-carboxylic acid hydrochloride (Enantiomer 1)], for which the EC50 was under 1 nM and the MEC is on record as under 0.3 nM.

For `NC(=O)CCN1CCN(c2ccc(-c3ccc(Cl)cc3N3CCCC(n4ncc(C(=O)O)c4C(F)F)C3)cc2)CC1` (single isomer, unassigned; enantiomer 2) [Example 47, 1-(1-{4′-[4-(3-Amino-3-oxopropyl)piperazin-1-yl]-4-chloro[biphenyl]-2-yl}piperidin-3-yl)-5-(difluoromethyl)-1H-pyrazole-4-carboxylic acid (Enantiomer 2)], the EC50 stood at 18 nM and the MEC is reported as 3.0 nM.

For the compound `CC(C)CN1CCN(c2ccc(-c3ccc(Cl)cc3N3CC(n4ncc(C(=O)O)c4C(F)F)CC(F)(F)C3)cc2)CC1` (single isomer, unassigned; enantiomer 2) [Example 55, 1-{1-[4-Chloro-4′-(4-isobutylpiperazin-1-yl)[biphenyl]-2-yl]-5,5-difluoropiperidin-3-yl}-5-(difluoromethyl)-1H-pyrazole-4-carboxylic acid hydrochloride (Enantiomer 2)], the EC50 was 56.5 nM and the MEC is given as 10.0 nM.

With `N#CCCN1CCN(c2ccc(-c3ccc(Cl)cc3N3CCCC(n4ncc(C(=O)O)c4C(F)F)C3)cc2)CC1` (single isomer, unassigned; enantiomer 2) [Example 46, 1-(1-{4-Chloro-4′-[4-(2-cyanoethyl)piperazin-1-yl][biphenyl]-2-yl}piperidin-3-yl)-5-(difluoromethyl)-1H-pyrazole-4-carboxylic acid (Enantiomer 2)], the 50% effective concentration (EC50) worked out at 1.7 nM and the MEC is 0.3 nM.

As for `O=C(O)c1cnn(C2CCCN(c3cc(Cl)ccc3-c3ccc(N4CCN(CC(F)F)CC4)cc3)C2)c1C(F)F` (single isomer, unassigned; enantiomer 1) [Example 18, 1-[1-{4-Chloro-4′-[4-(2,2-difluoroethyl)piperazin-1-yl][biphenyl]-2-yl}piperidin-3-yl]-5-(difluoromethyl)-1H-pyrazole-4-carboxylic acid hydrochloride (Enantiomer 1)], the EC50 is under 1 nM and the MEC was 0.3 nM.

As for `O=C(O)c1cnn(C2CCCN(c3cc(Cl)ccc3-c3ccc(N4CCN(CC5CC5F)CC4)cc3)C2)c1C(F)F` (single isomer, unassigned; diastereomer 4) [Example 34, 1-[1-[5-Chloro-2-[4-[4-[(trans-2-fluorocyclopropyl)methyl]piperazin-1-yl]phenyl]phenyl]-3-piperidyl]-5-(difluoromethyl)pyrazole-4-carboxylic acid hydrochloride (Diastereomer 4)], the EC50 was 3.4 nM and the MEC was found to be 0.3 nM.

In the case of `O=C(O)c1cnn(C2CCCN(c3cc(Cl)ccc3-c3ccc(N4CCN(C5CC5)CC4)cc3)C2)c1C(F)F` (single isomer, unassigned; enantiomer 1) [Example 8, 1-{1-[4-Chloro-4′-(4-cyclopropylpiperazin-1-yl)[biphenyl]-2-yl]piperidin-3-yl}-5-(difluoromethyl)-1H-pyrazole-4-carboxylic acid hydrochloride (Enantiomer 1)], the EC50 came to 24.5 nM and the MEC is 3.0 nM.
